For data set [1] the following is noted: human, in vivo, iv; cited from earlier work.
The test system of another data set is Mouse. Conditions: pretreatment with GSH; cited from earlier work.
A further data set relates to guinea pigs. The conditions noted are these: non-ascorbate deficient animals, double the dose of 3.75 mmol/kg daily; cited from earlier work.
Another data set can be described thus: in vivo. The conditions noted are these: po.
In data set [2] the test system is systolic and diastolic blood pressure. Conditions: cited from earlier work.

Structures are written as SMILES. Read-outs that look alike come from different tables or passages of the source.

Source text for in vivo: Once past the stomach, it is important that the glutathione be immediately available for absorption, as the desulfurases and peptidases from the pancreas, as well as the increase in pH, do tend to degrade the glutathione. […] Thus, by providing a high concentration of glutathione in the duodenum, without substantial dilution, the glutathione may be absorbed at a maximum rate.

Broadly, the bioavailability is the share of a dose that reaches the circulation, judged against a reference dose that is usually intravenous. The low end stands for poor availability, the high end for good availability. As for `N[C@@H](CCC(=O)N[C@@H](CS)C(=O)NCC(=O)O)C(=O)O` [GSH, gamma-glutamyl-cysteinyl-glycine], the half-life in data set [1] is listed as 14.1−9.2 minutes. The “volume of distribution of exogenous glutathione” value in data set [1] is on record as 176−107 Ml/Kg. Besides, the “effect on morphine-induced lethality” value in the data set with Mouse is on record as “protects against morphine-induced lethality”. Further, in the data set on guinea pigs, the toxicity entry is given as “seen at double this dose”. For the same compound, the bioavailability in “in vivo” was approximately 90%. Besides, the “time of return of blood pressure to baseline” value in data set [2] (1,844 mg i.v. bolus) is not above 30 min. Also, the blood pressure effect entry is “rapid and significant decrease in both systolic and diastolic blood pressure” in data set [2] (1,844 mg i.v. bolus, hypertensive patients and non-hypertensive diabetics); “no effect” in data set [2] (1,844 mg i.v. bolus, normal healthy subjects); “significant decrease in the blood pressure values” in data set [2] (3,699 mg dose, normal subjects).

These data come from patent US6586404B1 (priority 1996, dated 2003).
